From US20200038355A1, “ANTIOXIDANTS FOR USE IN OPHTHALMIC SURGERY” (Case Western Reserve University, priority 2017, published 2020)
Entries after “also recorded” stand apart in the source; their conditions may differ. Where a name gives a salt, the structure may show the parent alone.

Experiments:
Format in all cases: cell-based
HLE-B3 cells = experiment: EMT marker / Wnt-β-catenin immunoblot in human lens epithelial cell line HLE-B3; conditions: for type I collagen expression / vimentin expression: 24 h challenge, 25 μM DMF or both
Description: (§1) Cell Culture—Human lens epithelial cells (HLE-B3) were grown in DMEM medium with 10% fetal bovine serum (FBS), 2 mM glutamine and 50 unit/ml penicillin streptomycin (ThermoFisher, Waltham, Mass.) at 37° C. in a humidified 5% CO2 incubator. For primary porcine lens epithelial cell culture, pig eyes were collected at a local slaughterhouse within two hours of postmortem time, placed on ice and transported to the lab (about 1 hr) for immediate processing. First, the isolated lens was incubated with 2 ml of 0.25% trypsin at 37° C. for 2 min to remove any attached non-lens cells. Then, after a brief rinse with HBSS, the lens capsule was isolated and rinsed three times with HBSS before incubation with 2 ml of 0.5% trypsin for 5 min. 5 ml of complete DMEM medium was added and tissue was disrupted by pipetting up and down 10-15 times with a pipette fitted with a 1000 μl tip. The tissue homogenate was then passed through a 100 μm cell strainer. The cells were collected by low speed centrifugation at 150×g and placed in a 35 mm laminin-coated tissue culture dish with DMEM medium supplied with 10% FBS, 2 mM glutamine and 50 unit/ml penicillin streptomycin (ThernoFisher). The cells were cultured at 37° C. in a humidified incubator with 5% CO2.
(§2) Cells were placed 24 hr before the treatment and fresh medium was replaced immediately before the treatment. The indicated concentrations of BSO, DMF, NAC, GSH-EE or TGFβ2 were added to fresh medium and incubated at various time intervals as indicated. After treatment time, the cells were harvested after three washes with ice-cold PBS and subjected to immunoblot or other assays as described below. For whole lens culture, the serum-free medium with or without BSO, NAC, GSH-EE or TGFβ2 was incubated immediately after isolation for 48 hr and the whole lens or lens capsule was collected for further analysis. For lens explant culture, 48 hr after explant culture, various stimulates were used in fresh serum-free medium for an additional 48 hr, and the explant was fixed with 10% formaldehyde for 10 min before immunofluorescence stain, as described below.
The cells, whole lens, lens capsule, and lens fibers were collected and lysed in lysis buffer containing 20 mM Tris pH 7.5, 1 mM EDTA, 1 mM EGTA, 150 mM NaCl, 1% Triton X-100, 2.5 mM sodium pyrophosphate, 1 mM bα-Glycerolphosphate, 1 mM Na3VO4, 1 mg/ml Leupeptin, 1 mM PMSF on ice for 10 min. The protein concentration from the supernatant was determined by protein BCA assay (ThermoFisher). The protein extract was further processed for immunoblot analysis and probed for αSMA, collagen I, vimentin, phosphorylated Smad2, phosphorylated Smad3, phosphorylated GSK-3β and (β-catenin. All data were normalized to the level of GAPDH.

[1] = tested on: mouse lens ex vivo culture; experiment: Mouse whole lens ex vivo culture, lens capsule immunoblot
Description: The isolated intact lens was rinsed three times with HBSS and then cultured in 12-well-plates with serum-free Medium 199 (ThermoFisher) with 50 unit/ml penicillin streptomycin at 37° C. in 5% CO2 incubator, as described above. The lens explant was cultured following the same procedure as described by a previous report. […] et al., Exp Eye Res 71, 591-597 (2000). In brief, the mouse lens was placed in an anterior-toposterior orientation with the anterior attached to the culture dish. The lens posterior capsule was torn/cut by the tip of extra-fine forceps and then peeled towards anterior capsule and pinned on the plastic culture dish. The lens fiber mass was removed thereafter. The explant was cultured in serum-free MEM medium supplied with 50 unit/ml penicillin streptomycin at 37° C. in 5% CO2 incubator as described above. Only healthy growing explants were used for the described study and any unhealthy looking explants, such as folded explants or those with cell detachment, were discarded. Cells were placed 24 hr before the treatment and fresh medium was replaced immediately before the treatment. The indicated concentrations of BSO, DMF, NAC, GSH-EE or TGFβ2 were added to fresh medium and incubated at various time intervals as indicated. After treatment time, the cells were harvested after three washes with ice-cold PBS and subjected to immunoblot or other assays as described below. For whole lens culture, the serum-free medium with or without BSO, NAC, GSH-EE or TGFβ2 was incubated immediately after isolation for 48 hr and the whole lens or lens capsule was collected for further analysis. For lens explant culture, 48 hr after explant culture, various stimulates were used in fresh serum-free medium for an additional 48 hr, and the explant was fixed with 10% formaldehyde for 10 min before immunofluorescence stain, as described below. The cells, whole lens, lens capsule, and lens fibers were collected and lysed in lysis buffer containing 20 mM Tris pH 7.5, 1 mM EDTA, 1 mM EGTA, 150 mM NaCl, 1% Triton X-100, 2.5 mM sodium pyrophosphate, 1 mM bα-Glycerolphosphate, 1 mM Na3VO4, 1 mg/ml Leupeptin, 1 mM PMSF on ice for 10 min. The protein concentration from the supernatant was determined by protein BCA assay (ThermoFisher). The protein extract was further processed for immunoblot analysis and probed for αSMA, collagen I, vimentin, phosphorylated Smad2, phosphorylated Smad3, phosphorylated GSK-3β and (β-catenin. All data were normalized to the level of GAPDH.

[2] = tested on: primary porcine lens epithelial cells; experiment: αSMA expression in primary cultured porcine lens epithelial cells (pLEC)
Description: as §1
Cells were placed 24 hr before the treatment and fresh medium was replaced immediately before the treatment. The indicated concentrations of BSO, DMF, NAC, GSH-EE or TGFβ2 were added to fresh medium and incubated at various time intervals as indicated. After treatment time, the cells were harvested after three washes with ice-cold PBS and subjected to immunoblot or other assays as described below. […]
The cells, whole lens, lens capsule, and lens fibers were collected and lysed in lysis buffer containing 20 mM Tris pH 7.5, 1 mM EDTA, 1 mM EGTA, 150 mM NaCl, 1% Triton X-100, 2.5 mM sodium pyrophosphate, 1 mM bα-Glycerolphosphate, 1 mM Na3VO4, 1 mg/ml Leupeptin, 1 mM PMSF on ice for 10 min. The protein concentration from the supernatant was determined by protein BCA assay (ThermoFisher). […]

lens explant = experiment: Mouse lens explant culture (ex vivo PCO mimetic model), αSMA immunofluorescence; conditions: 1 ng/ml TGFβ2, 48 hr stimulation
Description: The isolated intact lens was rinsed three times with HBSS and then cultured in 12-well-plates with serum-free Medium 199 (ThermoFisher) with 50 unit/ml penicillin streptomycin at 37° C. in 5% CO2 incubator, as described above. The lens explant was cultured following the same procedure as described by a previous report. Tamiya et al., Exp Eye Res 71, 591-597 (2000). In brief, the mouse lens was placed in an anterior-toposterior orientation with the anterior attached to the culture dish. The lens posterior capsule was torn/cut by the tip of extra-fine forceps and then peeled towards anterior capsule and pinned on the plastic culture dish. The lens fiber mass was removed thereafter. The explant was cultured in serum-free MEM medium supplied with 50 unit/ml penicillin streptomycin at 37° C. in 5% CO2 incubator as described above. Only healthy growing explants were used for the described study and any unhealthy looking explants, such as folded explants or those with cell detachment, were discarded.
as §2, with “For lens explant culture, 48 hr after explant culture, various stimulates were used in fresh serum-free medium for an additional 48 hr, and the explant was fixed with 10% formaldehyde for 10 min before immunofluorescence stain, as described below.” left out
Confocal microscope—All confocal images were collected by a Leica SP8 gSTED confocal microscope equipped with two 3 Hyd SP GaAsP detectors and the AOBS system lasers include a 405 nm, Argon (458, 476, 488, 496, 514 nm), a tunable white light (470 to 670 nm), and a 592 nm STED depletion laser. For proper comparison, each channel of fluorescence was adjusted to the highest sensitivity/intensity but without over saturation from samples with the strongest signal. […]

[3] = HLE-B3 cells, 24 hr treatment with increasing concentration of BSO or DMF
[4] = HLE-B3 cells, 24 hr, 500 μM BSO or 25 μM DMF
[5] = mouse lens ex vivo culture, 500 μM BSO, 48 hrs
[6] = HLE-B3 cells, XAV939 co-incubated with 500 μM BSO, 24 hr
[7] = lens capsule after ex vivo lens culture, BSO plus XAV939, 48 hr

CCCCS(=N)(=O)CCC(N)C(=O)O (stereo not shown) [BSO, buthionine sulfoximine]
phosphorylation status of Smad2 and Smad3 (HLE-B3 cells; HLE-B3 cells with or without 500 μM BSO, 24 hr): no remarkable changes | αSMA production, combination with TGFβ2 (HLE-B3 cells; HLE-B3 cells, 500 μM BSO combined with 1 ng/ml TGFβ2, 24 hr): synergistic effect | phosphorylation at serine 9 of GSK-3β (HLE-B3 cells; HLE-B3 cells, 500 μM BSO, 24 hr): significantly elevated; also recorded: significantly increased | type I collagen expression (HLE-B3 cells; HLE-B3 cells, 500 μM BSO): Significantly increased; also recorded: significantly elevated | vimentin expression (HLE-B3 cells; HLE-B3 cells, 500 μM BSO): Significantly increased; also recorded: significantly elevated | αSMA expression (HLE-B3 cells; [3]): increased; also recorded: significantly upregulated | αSMA expression (HLE-B3 cells; [4]): Significantly increased | phosphorylation at serine 9 of GSK-3β ([1]; lens capsules after whole lens ex vivo culture with BSO, 48 hr): significantly increased | increase of vimentin expression compared to medium alone [1, 5]: ~2 fold | increase of αSMA expression compared to medium alone [1, 5]: over 3.5 fold | αSMA expression ([2]; pLECs, increased concentration of BSO, 24 hr): increases | concentration required to stimulate a similar fold of αSMA production ([2]; primary porcine lens epithelial cells, 24 hr, 100 times lower than in HLE-B3): 5 µM | cell death ([2]; primary porcine lens epithelial cells, higher dosages of BSO (>100 μM)): massive cell death and detachment

COC(=O)/C=C/C(=O)OC [DMF, dimethyl fumarate]
type I collagen expression (HLE-B3 cells; HLE-B3 cells, 500 μM BSO): Significantly increased; also recorded: significantly elevated | vimentin expression (HLE-B3 cells; HLE-B3 cells, 500 μM BSO): Significantly increased; also recorded: significantly elevated | αSMA expression (HLE-B3 cells; [3]): increased; also recorded: significantly upregulated | αSMA expression (HLE-B3 cells; [4]): Significantly increased

Oc1nc(-c2ccc(C(F)(F)F)cc2)nc2c1CSCC2 [XAV939]
αSMA production after BSO challenge (HLE-B3 cells; [6]): block | β-catenin production after BSO challenge (HLE-B3 cells; [6]): block | αSMA production after BSO challenge [1, 7]: block | β-catenin production after BSO challenge [1, 7]: block

B1: TGFβ2: Human TGFβ2, profibrogenic cytokine purchased from Sigma-Aldrich (protein, UniProt P61812 303-414, looked up)
Transforming growth factor …: ALDAAYCFRNVQDNCCLRPLYIDFKRDLGWKWIHEPKGYNANFCAGACPYLWSSDTQHSRVLSLYNTINPEASASPCCVSQDLEPLTILYYIGKTPKIEQLSNMIVKSCKCS
αSMA expression in lens explant compared to medium alone (lens explant): activated; also recorded: profound elevation
